The assay has as its system 857933-349-R-J2-PDC complex spheroid viability. Put plainly: Anticancer human tumor 857933-349-R-J2-PDC patient-derived colon adenocarcinoma cell line growth inhibition [POLQ]. Conditions: for viability, T/C: stronger effect = lower value. As to the method:
Multicellular complex tumor spheroid response to Polymerase (POL) inhibitors (novobiocin, ART-558, RP6685) in combination with a variety of drugs and investigational agents in selected tumor cell lines
The POL inhibitors (novobiocin, ART-558, and RP6685) were evaluated both individually and in combination with standard of care and investigational anticancer small molecules within a complex spheroid model of solid tumors. . Complex spheroids include a stromal component modeled by human endothelial cells (HUVEC) and fibroblasts modeled by human mesenchymal stem cells (MSCs). The concentration ranges selected for each drug and investigational agent were based upon clinically achievable concentrations if the clinical Cmax of the agent was known.
Compounds. The drugs and investigational agents: novobiocin (NSC847541), ART-558 (NSC835418), RP-6685 (NSC848927), peposertib (NSC802822), ceralasertib (NSC780249), elimusertib (NSC800525), camonsertib (NSC841442), AZD-1390 (NSC803789), olaparib (NSC753686), talazoparib (NSC767125), rucaparib (NSC756644), sotorasib (NSC818433), MRTX-1133 (NSC836407), SN-38 (NSC673596), topotecan (NSC609699), epotoside (NSC141540), doxorubicin (NSC123127), gemcitabine (NSC613327), 5-fluorouracil (NSC19893), paclitaxel (NSC125973), vemurafenib (NSC761431), MSA-2 (NSC828583), SN-011 (NSC837082), adavosertib (NSC754352), prexasertib (NSC758257), carboplatin (NSC241240) and oxaliplatin (NSC266046), were obtained from the National Cancer Institute (NCI) Developmental Therapeutics Program Chemical Repository (21). The FDA-approved anticancer drug set is available from the Developmental Therapeutics Program at https://dtp.cancer.gov/organization/dscb/obtaining/. […] The stock solutions were prepared in dimethyl sulfoxide (DMSO, Sigma-Aldrich, St. Louis, MO, cat. D2650), except for the platinum compounds which were prepared in saline (Quality Biological, Gaithersburg, MD, cat. 114-055-101), at 800-fold the tested concentration and stored at -70 degrees C prior to their use. All drugs and investigational agents were tested over a range starting from a high concentration at or near the clinical Cmax and decreasing in half-log increments. If the clinical Cmax for an agent had not been determined, the highest concentration tested was 10 microM, except for SN-38, which was tested at a high concentration of 1 microM.
Cell Culture. All cells were maintained in an incubator at 37 degrees C and 5% CO2 with 95% humidity. The PDC lines were cultured according to standard operating procedures established by the NCI PDMR (https://pdmr.cancer.gov). Table 3 of the manuscript, lists the cell lines along with the number of the three cell types plated to form the mct-spheroids and media for tumor cell growth. After thawing, all PDC lines, except 997537-175-T-J1-PDC and 415267-285-R-J2-PDC, were cultured in Matrigel-coated flasks prepared with a working solution of 1X Ham's F-12 nutrient mix, without supplementation (Thermo Fisher Scientific, cat. 11765054), 100 U/mL penicillin-streptomycin (Thermo Fisher Scientific, cat. 15140122), and 2.5% Matrigel (Corning Inc., Corning, NY, cat. 354248) for the first three passages. The two PDC lines 997537-175-T-J1-PDC and 415267-285-R-J2-PDC were cultured on uncoated flasks. The 857933-349-R-J2-PDC line was cultured in 6C/Colon 1B media containing advanced DMEM/F-12 (Thermo Fisher Scientific, cat. 12634028), 10 mM HEPES (Thermo Fisher Scientific, cat. 15630080), 1X GlutaMAX supplement (Thermo Fisher Scientific, cat. 35050061), 0.1 mg/mL primocin (InvivoGen, San Diego, CA, cat. ant-pm-2), 10% defined fetal bovine serum, heat inactivated (HyClone Laboratories Inc., Logan, UT, cat. SH30070.03HI), 50% L-WRN conditioned media (ATCC, cat. CRL-3276), 1.25 mM N-Acetyl-L-cysteine (Sigma-Aldrich, cat. A9165), 10 mM nicotinamide (Sigma-Aldrich, cat. N0636), 1X B-27 supplement (Thermo Fisher Scientific, cat. 17504044), 1X N-2 supplement (Thermo Fisher Scientific, cat. […]

Setting [1] is: curve of first compound, second compound 0.0316 µM.
[2] abbreviates: curve of first compound, second compound 0.1 µM.
Where [3] appears, read: curve of first compound, second compound 0.316 µM.
Setting [4] is: curve of first compound, second compound 1 µM.
[5] abbreviates: curve of first compound, second compound 3.16 µM.
Where [6] appears, read: curve of first compound, second compound 10 µM.
[7] abbreviates: second compound 0.0316 µM, first compound 0.0316 µM.
The mark [8] stands for this setting: second compound 0.0316 µM, first compound 0.1 µM.
[9] abbreviates: second compound 0.0316 µM, first compound 0.316 µM.
Setting [10] is: second compound 0.0316 µM, first compound 1 µM.
Setting [11] is: second compound 0.1 µM, first compound 0.0316 µM.
Where [12] appears, read: second compound 0.1 µM, first compound 0.1 µM.
[13] abbreviates: second compound 0.1 µM, first compound 0.316 µM.
The mark [14] stands for this setting: second compound 0.1 µM, first compound 1 µM.
Setting [15] is: second compound 0.316 µM, first compound 0.0316 µM.
Setting [16] is: second compound 0.316 µM, first compound 0.1 µM.
The mark [17] stands for this setting: second compound 0.316 µM, first compound 0.316 µM.
Setting [18] is: second compound 0.316 µM, first compound 1 µM.
Setting [19] is: second compound 1 µM, first compound 0.0316 µM.
Where [20] appears, read: second compound 1 µM, first compound 0.1 µM.
The mark [21] stands for this setting: second compound 1 µM, first compound 0.316 µM.
The mark [22] stands for this setting: second compound 1 µM, first compound 1 µM.
Setting [23] is: second compound 3.16 µM, first compound 0.0316 µM.
[24] abbreviates: second compound 3.16 µM, first compound 0.1 µM.
Setting [25] is: second compound 3.16 µM, first compound 0.316 µM.
Where [26] appears, read: second compound 3.16 µM, first compound 1 µM.
Setting [27] is: second compound 10 µM, first compound 0.0316 µM.
The mark [28] stands for this setting: second compound 10 µM, first compound 0.1 µM.
The mark [29] stands for this setting: second compound 10 µM, first compound 0.316 µM.
Where [30] appears, read: second compound 10 µM, first compound 1 µM.

Each structure is given as a SMILES string. Where “and” joins values, the source holds several entries; their conditions need not be identical. Equal values may be shown once.
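Also: spheroids exposed to compounds for seven days before readout.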

A word on the viability, T/C: it is the result in the treated group divided by that in the control group, in per cent. A word on the IC50: it is the concentration at which inhibition is half-maximal. In the case of `COc1cccc(OCCCN)c1-c1cc(Nc2cnc(C#N)cn2)n[nH]1`, the viability, T/C was 91.5% and 95.9% and 86.6% (compound 0.00316 µM); 87.6% and 84.2% and 97.2% (compound 0.01 µM); 74.3% and 98.6% and 80.6% (compound 0.0316 µM); 51.2% and 62.8% and 75.9% (compound 0.1 µM); 53.3% and 60.6% and 53.7% (compound 0.316 µM); 38.1% and 53.8% and 48.8% (compound 1 µM). The half-inhibitory concentration (IC50) (curve of compound) was 0.189 µM and > 1 µM and 0.731 µM.

On to `Nc1ccn(C2OC(CO)C(O)C2(F)F)c(=O)n1` (stereo unspecified) + Nc1ccc(C#CCN(C(=O)Cc2ncc(C(F)(F)F)cc2C(F)(F)F)c2ccc(F)cc2)nn1, for which the IC50 reads like this: under setting [1], 0.087 µM; under setting [2], 0.114 µM; under setting [3], 0.125 µM; under setting [4], 0.121 µM; under setting [5], 0.109 µM; under setting [6], 0.115 µM. In addition, the viability, T/C is, setting by setting: under setting [7], 74.7%; under setting [8], 46.7%; under setting [9], 14.3%; under setting [10], 9.47%; (second compound 0.0316 µM, first compound 3.16 µM) 6.73%; (second compound 0.0316 µM, first compound 10 µM) 6.61%. Further, the viability, T/C runs as follows: under setting [11], 65.3%; under setting [12], 54.7%; under setting [13], 14.5%; under setting [14], 8.76%; (second compound 0.1 µM, first compound 3.16 µM) 7.02%; (second compound 0.1 µM, first compound 10 µM) 6.34%. Moreover, the viability, T/C runs as follows: under setting [15], 71.5%; under setting [16], 59.6%; under setting [17], 9.98%; under setting [18], 9.36%; (second compound 0.316 µM, first compound 3.16 µM) 5.55%; (second compound 0.316 µM, first compound 10 µM) 7.25%. In addition, the viability, T/C is 81% under setting [19]; 57.6% under setting [20]; 12% under setting [21]; 11.3% under setting [22]; 9.17% (second compound 1 µM, first compound 3.16 µM); 6.73% (second compound 1 µM, first compound 10 µM). Also, the viability, T/C runs as follows: under setting [23], 69.6%; under setting [24], 52.8%; under setting [25], 17.3%; under setting [26], 9.05%; (second compound 3.16 µM, first compound 3.16 µM) 6.17%; (second compound 3.16 µM, first compound 10 µM) 7.31%. In addition, the viability, T/C runs as follows: under setting [27], 66.3%; under setting [28], 54.9%; under setting [29], 15%; under setting [30], 11.1%; (second compound 10 µM, first compound 3.16 µM) 12.4%; (second compound 10 µM, first compound 10 µM) 10.2%.

Take `COc1cccc2c1C(=O)c1c(O)c3c(c(O)c1C2=O)CC(O)(C(=O)CO)CC3OC1CC(N)C(O)C(C)O1` (stereo unspecified): the viability, T/C (compound 0.0316 µM) is 74.8% and 79.1% and 66.5%; the viability, T/C (compound 0.1 µM) is 76.8% and 69% and 68.7%; the viability, T/C (compound 0.316 µM) is 43.7% and 46.9% and 49.5%; the viability, T/C (compound 1 µM) was 10.4% and 8.69% and 8.8%; the viability, T/C (compound 3.16 µM) is 0.42% and 0.45% and 0.4%; the viability, T/C (compound 10 µM) is 0.55% and 0.34% and 0.38%. The IC50 (curve of compound) is 0.259 µM and 0.312 µM.

For the compound `CCc1c2c(nc3ccc(O)cc13)-c1cc3c(c(=O)n1C2)COC(=O)[C@]3(O)CC` + Cc1cccc(N(C)C(=O)C2C(O)CCN2c2nc(C)cc(C(F)(F)F)c2C#N)c1, the IC50 under setting [1] came to 0.0215 µM; the IC50 under setting [2] turned out to be 0.0167 µM; the 50% inhibitory concentration (IC50) under setting [3] came out at 0.014 µM; the IC50 under setting [4] came out at 0.0156 µM; the IC50 under setting [5] is 0.0134 µM; the IC50 under setting [6] turned out to be 0.0136 µM. Further, the viability, T/C by setting is: (second compound 0.0316 µM, first compound 0.00316 µM) 75%; (second compound 0.0316 µM, first compound 0.01 µM) 78.5%; under setting [7], 36.5%; under setting [8], 20%; under setting [9], 16.1%; under setting [10], 5.22%. In addition, the viability, T/C was 70.1% (second compound 0.1 µM, first compound 0.00316 µM); 68.6% (second compound 0.1 µM, first compound 0.01 µM); 27.4% under setting [11]; 17.7% under setting [12]; 13.2% under setting [13]; 3.51% under setting [14]. Besides, the viability, T/C by setting is: (second compound 0.316 µM, first compound 0.00316 µM) 67%; (second compound 0.316 µM, first compound 0.01 µM) 59.5%; under setting [15], 32%; under setting [16], 20.2%; under setting [17], 15%; under setting [18], 4.16%. Further, the viability, T/C by setting is: (second compound 1 µM, first compound 0.00316 µM) 73.9%; (second compound 1 µM, first compound 0.01 µM) 62.5%; under setting [19], 30.8%; under setting [20], 19.8%; under setting [21], 14.1%; under setting [22], 5.21%. For the same compound, the viability, T/C is, setting by setting: (second compound 3.16 µM, first compound 0.00316 µM) 72.9%; (second compound 3.16 µM, first compound 0.01 µM) 59.6%; under setting [23], 23.5%; under setting [24], 19.1%; under setting [25], 12.3%; under setting [26], 4.25%. Also, the viability, T/C is, setting by setting: (second compound 10 µM, first compound 0.00316 µM) 65.1%; (second compound 10 µM, first compound 0.01 µM) 60.2%; under setting [27], 22.4%; under setting [28], 17.7%; under setting [29], 17.1%; under setting [30], 2.64%.

`CC1COCCN1c1cc(C2(O)CC3CCC(C2)O3)c2cnn(-c3ccn[nH]3)c2n1` (stereo unspecified): the viability, T/C is 62.7% and 58.8% and 79.7% (compound 0.0316 µM); 51.6% and 50.3% and 63.5% (compound 0.1 µM); 52.9% and 47% and 57.7% (compound 0.316 µM); 44.2% and 42.2% and 45.6% (compound 1 µM); 39.6% and 45.2% and 46.2% (compound 3.16 µM); 45.9% and 49.6% and 45.8% (compound 10 µM). In addition, the IC50 (curve of compound) is 0.232 µM and 0.0942 µM and 0.805 µM.

For `Nc1ccc(C#CCN(C(=O)Cc2ncc(C(F)(F)F)cc2C(F)(F)F)c2ccc(F)cc2)nn1`, the viability, T/C is 97.7% [middle of 13 runs] (compound 0.0316 µM); 104% [middle of 13 runs] (compound 0.1 µM); 102% [middle of 13 runs] (compound 0.316 µM); 99.5% [middle of 13 runs] (compound 1 µM); 99.5% [middle of 13 runs] (compound 10 µM). The IC50 (compound alone, run of 01/19/2024) was over 10 µM.

Values taken from PubChem BioAssay AID1963836 (Molecular Pharmacology Branch, DTP, NCI, 2024).
